Legend:
Assay in all cases: NCI-60 one-dose SRB screening
Type in all cases: cell-based
SW-620 = settings: Homo sapiens, SW-620, Colon Cancer, 10 µM one dose, 48 h, read-out: growth percentage
M14 = settings: Homo sapiens, M14, Melanoma, 10 µM one dose, 48 h, read-out: growth percentage
RPMI-8226 = settings: Homo sapiens, RPMI-8226, Leukemia, 10 µM one dose, 48 h, read-out: growth percentage
NCI-H23 = settings: Homo sapiens, NCI-H23, Non-Small Cell Lung Cancer, 10 µM one dose, 48 h, read-out: growth percentage
SK-MEL-5 = settings: Homo sapiens, SK-MEL-5, Melanoma, 10 µM one dose, 48 h, read-out: growth percentage
NCI-H522 = settings: Homo sapiens, NCI-H522, Non-Small Cell Lung Cancer, 10 µM one dose, 48 h, read-out: growth percentage
NCI/ADR-RES = settings: Homo sapiens, Ovarian Cancer, 10 µM one dose, 48 h, read-out: growth percentage
HCT-15 = settings: Homo sapiens, HCT-15, Colon Cancer, 10 µM one dose, 48 h, read-out: growth percentage
HOP-92 = settings: Homo sapiens, HOP-92, Non-Small Cell Lung Cancer, 10 µM one dose, 48 h, read-out: growth percentage
ACHN = settings: Homo sapiens, Renal Cancer, 10 µM one dose, 48 h, read-out: growth percentage
UO-31 = settings: Homo sapiens, UO-31, Renal Cancer, 10 µM one dose, 48 h, read-out: growth percentage
SK-MEL-2 = settings: Homo sapiens, SK-MEL-2, Melanoma, 10 µM one dose, 48 h, read-out: growth percentage
U251 = settings: Homo sapiens, U-251, U251, CNS Cancer, 10 µM one dose, 48 h, read-out: growth percentage
MDA-MB-231/ATCC = settings: Homo sapiens, Breast Cancer, 10 µM one dose, 48 h, read-out: growth percentage
SF-268 = settings: Homo sapiens, SF-268, CNS Cancer, 10 µM one dose, 48 h, read-out: growth percentage
SR = settings: Homo sapiens, Leukemia, 10 µM one dose, 48 h, read-out: growth percentage
UACC-62 = settings: Homo sapiens, UACC-62, Melanoma, 10 µM one dose, 48 h, read-out: growth percentage
SF-539 = settings: Homo sapiens, SF-539, CNS Cancer, 10 µM one dose, 48 h, read-out: growth percentage
T-47D = settings: Homo sapiens, T47D, Breast Cancer, 10 µM one dose, 48 h, read-out: growth percentage
DU-145 = settings: Homo sapiens, DU-145, Prostate Cancer, 10 µM one dose, 48 h, read-out: growth percentage
IGROV1 = settings: Homo sapiens, IGROV-1, IGROV1, Ovarian Cancer, 10 µM one dose, 48 h, read-out: growth percentage
SK-MEL-28 = settings: Homo sapiens, SK-MEL-28, Melanoma, 10 µM one dose, 48 h, read-out: growth percentage

| Compound | activity at 10 µM (SW-620) [%] | activity at 10 µM (M14) [%] | activity at 10 µM (RPMI-8226) [%] | activity at 10 µM (NCI-H23) [%] | activity at 10 µM (SK-MEL-5) [%] | activity at 10 µM (NCI-H522) [%] | activity at 10 µM (NCI/ADR-RES) [%] | activity at 10 µM (HCT-15) [%] | activity at 10 µM (HOP-92) [%] | activity at 10 µM (ACHN) [%] | activity at 10 µM (UO-31) [%] | activity at 10 µM (SK-MEL-2) [%] | activity at 10 µM (U251) [%] | activity at 10 µM (MDA-MB-231/ATCC) [%] | activity at 10 µM (SF-268) [%] | activity at 10 µM (SR) [%] | activity at 10 µM (UACC-62) [%] | activity at 10 µM (SF-539) [%] | activity at 10 µM (T-47D) [%] | activity at 10 µM (DU-145) [%] | other results |
| --- | --- | --- | --- | --- | --- | --- | --- | --- | --- | --- | --- | --- | --- | --- | --- | --- | --- | --- | --- | --- | --- |
| [O-][n+]1onc(-c2ccccc2)c1COc1ccc(Nc2ncnc3c2cnn3-c2ccc(Br)cc2)cc1 [6e, 3-((4-((1-(4-bromophenyl)-1H-pyrazolo[3,4-d]pyrimidin-4-yl)amino)phenoxy)methyl)-4-phenyl-1,2,5-oxadiazole 2-oxide] | 115 | 102 | 111 | 101 | 95.9 | 96.1 | 107 | 94.9 | 109 | 103 | 84.7 | 99.2 | 102 | 108 | 101 | 98 | 89.1 | 98.4 | 99.9 | 107 | activity at 10 µM (IGROV1): 106%; activity at 10 µM (SK-MEL-28): 99.3% |
| O=c1[nH]c(CCl)nc2c1cnn2-c1ccccc1 [13a] | 102 | 110 | 82.5 | 101 | 107 | 103 | 104 | 99.9 | 101 | 96.7 | -20.9 | 104 | 93.7 | 101 | 99.9 | 87.1 | 96.2 | 97.1 | 95.2 | 98.6 | activity at 10 µM (IGROV1): 96.2%; activity at 10 µM (SK-MEL-28): -89.8% |
| [O-][n+]1onc(-c2ccccc2)c1CNc1ccc(Nc2nc(C(F)(F)F)nc3c2cnn3-c2ccc(Br)cc2)cc1 [12b, 3-(((4-((1-(4-bromophenyl)-6-(trifluoromethyl)-1H-pyrazolo[3,4-d]pyrimidin-4-yl)amino)phenyl)amino)methyl)-4-phenyl-1,2,5-oxadiazole 2-oxide] | 84.8 | 68.2 | 73.8 | 72.4 | 86 | 72.6 | 66.4 | 38.1 | 68.4 | 56.9 | 43.4 | 99.8 | 73.2 | 69.7 | 65 | 43.5 | 64.9 | 68.3 | 68.8 | 70.8 | activity at 10 µM (IGROV1): 60.1%; activity at 10 µM (SK-MEL-28): 89.2% |
| Cc1nn(-c2ccccc2)c2nc(CNc3ccc(NCc4c(-c5ccccc5)no[n+]4[O-])cc3)[nH]c(=O)c12 [14b, 3-(((4-(((3-methyl-4-oxo-1-phenyl-4,5-dihydro-1H-pyrazolo[3,4-d]pyrimidin-6-yl)methyl)amino)phenyl)amino)methyl)-4-phenyl-1,2,5-oxadiazole 2-oxide] | 110 | 106 | 79 | 86.6 | 108 | 80.9 | 92.4 | 80.6 | 93.2 | 88.8 | 72.4 | 100 | 94.6 | 82.7 | 84.9 | 73 | 98.5 | 99.4 | 75.5 | 90.7 | activity at 10 µM (IGROV1): 64.4%; activity at 10 µM (SK-MEL-28): 99.2% |
| Cc1nn(-c2ccc(Br)cc2)c2ncnc(Nc3ccc(OCc4c(-c5ccccc5)no[n+]4[O-])cc3)c12 [6g, 3-((4-((1-(4-bromophenyl)-3-methyl-1H-pyrazolo[3,4-d]pyrimidin-4-yl)amino)phenoxy)methyl)-4-phenyl-1,2,5-oxadiazole 2-oxide] | 107 | 94 | 108 | 95 | 96.5 | 92 | 93.8 | 97.2 | 86.5 | 88 | 81.5 | 101 | 102 | 84.9 | 104 | 121 | 80.3 | 90.4 | 98.5 | 110 | activity at 10 µM (IGROV1): 88.2%; activity at 10 µM (SK-MEL-28): 99.5% |
| [O-][n+]1onc(-c2ccccc2)c1COc1ccc(Nc2ncnc3c2cnn3-c2ccccc2)cc1 [6a, 4-phenyl-3-((4-((1-phenyl-1H-pyrazolo[3,4-d]pyrimidin-4-yl)amino)phenoxy)methyl)-1,2,5-oxadiazole 2-oxide] | 106 | 104 | 104 | 105 | 102 | 99.2 | 102 | 54.2 | 115 | 105 | 94.2 | 105 | 107 | 97.5 | 103 | 85.2 | 103 | 95.7 | 96 | 107 | activity at 10 µM (IGROV1): 95%; activity at 10 µM (SK-MEL-28): 104% |
| Cc1nn(-c2ccccc2)c2nc(C(F)(F)F)nc(Nc3ccc(NCc4c(-c5ccccc5)no[n+]4[O-])cc3)c12 [12a, 3-(((4-((3-methyl-1-phenyl-6-(trifluoromethyl)-1H-pyrazolo[3,4-d]pyrimidin-4-yl)amino)phenyl)amino)methyl)-4-phenyl-1,2,5-oxadiazole 2-oxide] | 86 | 68.7 | 83.4 | 96.7 | 70.3 | 91.4 | 83 | 42 | 90.1 | 77.7 | 57.5 | 106 | 69.9 | 84.4 | 68.6 | 58.7 | 64.9 | 78.1 | 80.5 | 82.2 | activity at 10 µM (IGROV1): 77.9%; activity at 10 µM (SK-MEL-28): 92.4% |
| Cc1nn(-c2ccccc2)c2ncnc(Nc3ccc(OCc4c(-c5ccccc5)no[n+]4[O-])cc3)c12 [6c, 3-((4-((3-methyl-1-phenyl-1H-pyrazolo[3,4-d]pyrimidin-4-yl)amino)phenoxy)methyl)-4-phenyl-1,2,5-oxadiazole 2-oxide] | 107 | 90.3 | 94 | 98.1 | 90.4 | 84.8 | 91.7 | 91.5 | 91.2 | 97.3 | 77 | 103 | 97.2 | 95.7 | 96.5 | 73.9 | 81.4 | 96.2 | 72 | 106 | activity at 10 µM (IGROV1): 97.1%; activity at 10 µM (SK-MEL-28): 102% |

From publication PMC8880564, “Design, Synthesis, and Biological Evaluation of a Novel VEGFR-2 Inhibitor Based on a 1,2,5-Oxadiazole-2-Oxide Scaffold with MAPK Signaling Pathway Inhibition” (Pharmaceuticals, 2022)
